Results as given in patent publication US5567716A, “Trans and cis traumatic acid salts having cicatrizant activity associated to bacteriostatic, antiviral, antibiotic or antifungal activity” (priority 1992, dated 1996).

Assays:
E. Coli ATCC.35218 = assay: Antibacterial activity, diffusion method in agar-germs (2.a); format: cell-based
Protocol: (§1) In a Tryprone Soy Agar diffusion medium ATCC (American Type Culture Collection) standard bacterial strains are inoculated, preparing a final solution of 10^6 cfu/g (colony forming unities) of the following strains:
(§2) Every plate contains 20 ml of a medium where 2 equidistant wells having a standard diameter are Formed and in each of these wells […] of the above described bacterial solution are inoculated. 2 plates are prepared for every couple of compounds to be tested at different concentrations, and For every strain, and each of these plates is compared with a white (sterile demineralized water inoculum). After the inoculum, the plates are placed in the refrigerator to favour diffusion and temporaneously blocking bacterial growth.
(§3) The compounds hexadecyltrimethylammonium traumatate and benzyldimethylhexadecylammonium traumatare respectively versus hexadecyl trimethylammonium bromide and benzyldimethylhexadecylammonium chloride are solubilized in demineralized water to Form solutions at the concentrations: 0.1; 0.5; and 1%.
(§4) The antibacterial effect is evaluated by measuring bacterial diffusion halo around the well vs white (halo absence).

PS Maltophila ATCC.13637 = assay: as above; format: cell-based
Protocol: as §1, §2, §3, §4

[1] = system: Pseudomonas Aeruginosa ATCC.35422; assay: as above; format: cell-based
Protocol: as §1, §2, §3, §4

[2] = system: Aspergillus Niger ATCC 16404; assay: as above; format: cell-based; parameters: unit not given here
Protocol: as §1, §2, §3, §4

[3] = system: Candida Albicans ATCC.10231; assay: as above; format: cell-based; parameters: unit not given here
Protocol: as §1, §2, §3, §4

PS Cepacia ATCC.25416 = assay: as above; format: cell-based; parameters: unit not given here
Protocol: as §1, §2, §3, §4

[4] = system: Stafilococcus Aureus ATCC.65380; assay: as above; format: cell-based; parameters: unit not given here
Protocol: as §1, §2, §3, §4

[5] = system: Stafilococcus Epidermidis ATCC.14990; assay: as above; format: cell-based; parameters: unit not given here
Protocol: as §1, §2, §3, §4

[6] = system: Streptococcus Fecalis ATCC.291212; assay: as above; format: cell-based; parameters: unit not given here
Protocol: as §1, §2, §3, §4

[7] = system: standard bacterial strains; assay: Antibacterial activity, diffusion method in agar-germs, all strains (2.a); format: cell-based; conditions: versus hexadecyltrimethylammonium bromide and benzyldimethylhexadecylammonium chloride; in words
Protocol: as §1, §2, §3, §4

B.subtilis ATCC 6633 = assay: Evaluation of bacteriostatic minimal concentration (BMC); format: cell-based; conditions: Table 2.b)5; test concentrations given in μg/ml
Protocol: (§5) 1. Culture Medium: Tryprone Soy Broth (TBS) - Biogenetics
(§6) Microbic standard strains from American Type Culture Collection (ATCC) were used, chosen among aerobic Gram positive and negative as follows:
(§7) The broths culture of the different species are prepared growing the standard strain (kept in Tryptic Soy Agar (TSA) slent at 5° C.) in Tryptone Soy Broth (TSB) for 12 hours at 37° C. 10 ml are then taken up from each culture, centrifugated for 3 times at 3500 PM washing each time the sediment using 10 ml of sterile saline solution. The sediment is resuspended in the saline solution until obtainment of a turbidity corresponding to the Mc Farland standard solution (the suspension title must be […] UFC/ml).
(§8) The compounds, dissolved as stock solution, were added to test tubes containing 5 ml TBS in order to obtain the desired Final concentration 10000; 5000; 1000; 200; 40; 2; 0.4; 0.05 μg/ml (culture medium maximal dilution=1/10).
(§9) 50 μl of bacterial suspension are added to the tube containing the compounds to be tested and incubated at 37° C.: the densitometric determination is made in comparison with Mc Farland standard solution 24 and 48 hours later.
(§10) After the incubation time the suspensions ape gently agitated; 50 μl of each suspension are inoculated in tubes containing […] of TSB and incubated at 37° C.; the densitometric determination is made 48 hours later.
(§11) BMC is defined by comparison between the two densitometric evaluation.

C.albicans ATCC 10231 = assay: as above; format: cell-based; conditions: Table 2.b)6; test concentrations given in μg/ml
Protocol: as §5, §6, §7, §8, §9, §10, §11

Ps.aeruginosa ATCC 35422 = assay: as above; format: cell-based; conditions: Table 2.b)1; test concentrations given in μg/ml
Protocol: as §5, §6, §7, §8, §9, §10, §11

St.aureus ATCC 65380 = assay: as above; format: cell-based; conditions: Table 2.b)2; test concentrations given in μg/ml
Protocol: as §5, §6, §7, §8, §9, §10, §11

[8] = system: St.epidermidis ATCC 14990; assay: as above; format: cell-based; conditions: Table 2.b)4; test concentrations given in μg/ml
Protocol: as §5, §6, §7, §8, §9, §10, §11

E.coli ATCC 35218 = assay: microbe, parasite or virus in culture; format: cell-based; conditions: Table 2.b)3; test concentrations given in μg/ml
Protocol: as §5, §6, §7, §8, §9, §10, §11

[9] = Physical chemical characteristics: solubility in water and organic solvents
fibroblast cells L929 = assay: Cell growth of fibroblast L929 culture, crystal violet colorimetry (1.2); conditions: in words
Protocol: Mice fibroblast cells L929, clone derived from connective tissue, are suspended in Eagle's MEM with penicillin (100U/ml)--streptomycin (0.1 mg/ml), seeded in culture dishes (10000cells/dish) and cultured overnight. After 24 hours the culture medium was decantated and the tested compounds are added. The cellular density is measured after 4 (t0) and 24 (t1) hours of incubation at 37° C. in 5% CO2 air by colorimetry using crystal violet (exposure for 15 minutes, room temperature; absorbance 570 nm).
The cells number is measured at 4 (t0) and 24 (t1) hours from the seeding. The cell growth is evaluated at t1/t0 rate (%).

3T3 fibroblasts = assay: Cellular proliferation of 3T3 fibroblasts, neutral red colorimetry (1.1a); format: cell-based, Mice
Protocol: Experiments on 3T3 fibroblasts
Mice 3T3 fibroblasts cultures sown at a 40.000/ml concentration on plates having 6 wells in a DMEM culture medium enriched with 10% calf serum are used. After 24 hours culture, the 90 prepared wells are divided in order to allow the analyses of the compounds of the invention, every compound to be tested being used respectively at a concentration of 0.1, 1 and 10 μg/ml by subsequent evaluations after 48 and 72 hours of incubation.
Hexadecyltrimethylammoniun (ETA) traumatare: solubilized in water and brought to the desired final concentrations of 0.1. 1 and 10 μg/ml by progressive dilutions;
Ethanolamine traumatate: solubilized in water and brought to the final concentrations of 0.1, 1 and 10 μg/ml by progressive dilutions;
Traumatic acid: neutralized with sodium hydroxyde and solubilized in water, then brought to the final concentrations of 0.1, 1 and 10 μg/ml by progressive dilutions with the culture medium.
The compounds are added to the cells after 24 hours culture. The cells number is measured by colorimetry with the neutral red intravital stain after 24, 48, 72 hours of incubation.

benzylmethylhexadecylammonium trans-traumatate
bacterial diffusion halo (E. Coli ATCC.35218; sol. 0.1%): n.h.
bacterial diffusion halo (E. Coli ATCC.35218; sol. 0.5%): n.h.
bacterial diffusion halo (E. Coli ATCC.35218; sol. 1%): 13
bacterial diffusion halo (PS Maltophila ATCC.13637; sol. 0.1%): n.h.
bacterial diffusion halo (PS Maltophila ATCC.13637; sol. 0.5%): n.h.
bacterial diffusion halo (PS Maltophila ATCC.13637; sol. 1%): 15
bacterial diffusion halo ([1]; sol. 0.1%): n.h.
bacterial diffusion halo ([1]; sol. 0.5%): 12
bacterial diffusion halo ([1]; sol. 1%): 14
bacterial diffusion halo ([2]; sol. 0.1%): 12
bacterial diffusion halo ([2]; sol. 0.5%): 16
bacterial diffusion halo ([2]; sol. 1%): 19
bacterial diffusion halo ([3]; sol. 0.1%): 13
bacterial diffusion halo ([3]; sol. 0.5%): 15
bacterial diffusion halo ([3]; sol. 1%): 16
bacterial diffusion halo (PS Cepacia ATCC.25416; sol. 0.1%): 12
bacterial diffusion halo (PS Cepacia ATCC.25416; sol. 0.5%): 15
bacterial diffusion halo (PS Cepacia ATCC.25416; sol. 1%): 15
bacterial diffusion halo ([4]; sol. 0.1%): 17
bacterial diffusion halo ([4]; sol. 0.5%): 22
bacterial diffusion halo ([4]; sol. 1%): 22
bacterial diffusion halo ([5]; sol. 0.1%): 15
bacterial diffusion halo ([5]; sol. 0.5%): 17
bacterial diffusion halo ([5]; sol. 1%): 19
bacterial diffusion halo ([6]; sol. 0.1%): 12
bacterial diffusion halo ([6]; sol. 0.5%): 14
bacterial diffusion halo ([6]; sol. 1%): 15
antibacterial and bacteriostatic activity profile [7]: antibacterial and bacteriostatic activity profile comparable to that of the comparison products
MINIMAL BACTERIAL CONCENTRATION (B.subtilis ATCC 6633): 1,000.00
MINIMAL BACTERIAL CONCENTRATION (C.albicans ATCC 10231): 2.00
MINIMAL BACTERIAL CONCENTRATION (Ps.aeruginosa ATCC 35422): 10,000.00
MINIMAL BACTERIAL CONCENTRATION (St.aureus ATCC 65380): 1,000.00
MINIMAL BACTERIAL CONCENTRATION [8]: 2.00
MINIMAL BACTERIAL CONCENTRATION (E.coli ATCC 35218): 200.00
organic solvent solubility ([9]; in ethanol): > 20 mg/mL
solubility in water ([9]; water): > 10 mg/mL

gentamycin trans-traumatate [Gentamycin Traumatate]
MINIMAL BACTERIAL CONCENTRATION (B.subtilis ATCC 6633): 40.00
MINIMAL BACTERIAL CONCENTRATION (C.albicans ATCC 10231): > 10,000
MINIMAL BACTERIAL CONCENTRATION (Ps.aeruginosa ATCC 35422): 1,000.00
MINIMAL BACTERIAL CONCENTRATION (St.aureus ATCC 65380): 1,000.00
MINIMAL BACTERIAL CONCENTRATION [8]: 200.00
MINIMAL BACTERIAL CONCENTRATION (E.coli ATCC 35218): 200.00
cell growth effect compared to traumatic acid (fibroblast cells L929): higher than traumatic acid effect
promotion of cell growth (proliferation) (fibroblast cells L929; benzethonium > gentamycin salt): capable to promote cell growth (proliferation) according to dose-effect relationship

hexadecyltrimethylammonium trans-traumatate [Hexadecyltrimethyl Ammonium Traumatate]
effect on cells proliferation (3T3 fibroblasts; 0.1 μg/ml, in words): able to affect cells proliferation according to a not statistically significant trend
effect on cellular proliferation (3T3 fibroblasts; 1 μg/ml, in words, ETA salt > ethanolamine salt = traumatic acid): able to increase cellular proliferation
cells numeration (colorimetric, neutral red) (3T3 fibroblasts; 24 hours of incubation, 0.1 (head: μg/ml), control 0.579 ± 0.021): 0.575 ± 0.041
cells numeration (colorimetric, neutral red) (3T3 fibroblasts; 24 hours of incubation, 1.0 (head: μg/ml), control 0.579 ± 0.021): 0.619 ± 0.033
cells numeration (colorimetric, neutral red) (3T3 fibroblasts; 24 hours of incubation, 10.0 (head: μg/ml), control 0.579 ± 0.021): 0.491 ± 0.021
cells numeration (colorimetric, neutral red) (3T3 fibroblasts; 48 hours of incubation, 0.1 (head: μg/ml), control 1.334 ± 0.050): 1.553 ± 0.061
cells numeration (colorimetric, neutral red) (3T3 fibroblasts; 48 hours of incubation, 1.0 (head: μg/ml), control 1.334 ± 0.050): 1.501 ± 0.081
cells numeration (colorimetric, neutral red) (3T3 fibroblasts; 48 hours of incubation, 10.0 (head: μg/ml), control 1.334 ± 0.050, ** p < 0.01 significant reduction): 0.842 ± 0.078
cells numeration (colorimetric, neutral red) (3T3 fibroblasts; 72 hours of incubation, 0.1 (head: μg/ml), control 2.360 ± 0.125): 2.501 ± 0.131
cells numeration (colorimetric, neutral red) (3T3 fibroblasts; 72 hours of incubation, 1.0 (head: μg/ml), control 2.360 ± 0.125): 2.503 ± 0.100
cells numeration (colorimetric, neutral red) (3T3 fibroblasts; 72 hours of incubation, 10.0 (head: μg/ml), control 2.360 ± 0.125, ** p < 0.01 significant reduction): 1.385 ± 1.63
time necessary for the cells to reach the confluence (3T3 fibroblasts; side control experiment, ETA and ethanolamine salts > traumatic acid): reduce the time normally necessary for the cells to reach the confluence
bacterial diffusion halo (E. Coli ATCC.35218; sol. 0.1%): n.h.
bacterial diffusion halo (E. Coli ATCC.35218; sol. 0.5%): 13
bacterial diffusion halo (E. Coli ATCC.35218; sol. 1%): 15
bacterial diffusion halo (PS Maltophila ATCC.13637; sol. 0.1%): n.h.
bacterial diffusion halo (PS Maltophila ATCC.13637; sol. 0.5%): 15
bacterial diffusion halo (PS Maltophila ATCC.13637; sol. 1%): 21
bacterial diffusion halo ([1]; sol. 0.1%): n.h.
bacterial diffusion halo ([1]; sol. 0.5%): n.h.
bacterial diffusion halo ([1]; sol. 1%): n.h.
bacterial diffusion halo ([2]; sol. 0.1%): 19
bacterial diffusion halo ([2]; sol. 0.5%): 22
bacterial diffusion halo ([2]; sol. 1%): 22
bacterial diffusion halo ([3]; sol. 0.1%): 19
bacterial diffusion halo ([3]; sol. 0.5%): 24
bacterial diffusion halo ([3]; sol. 1%): 25
bacterial diffusion halo (PS Cepacia ATCC.25416; sol. 0.1%): 18
bacterial diffusion halo (PS Cepacia ATCC.25416; sol. 0.5%): 19
bacterial diffusion halo (PS Cepacia ATCC.25416; sol. 1%): 22
bacterial diffusion halo ([4]; sol. 0.1%): 21
bacterial diffusion halo ([4]; sol. 0.5%): 24
bacterial diffusion halo ([4]; sol. 1%): 24
bacterial diffusion halo ([5]; sol. 0.1%): 20
bacterial diffusion halo ([5]; sol. 0.5%): 22
bacterial diffusion halo ([5]; sol. 1%): 22
bacterial diffusion halo ([6]; sol. 0.1%): 20
bacterial diffusion halo ([6]; sol. 0.5%): 22
bacterial diffusion halo ([6]; sol. 1%): 22
antibacterial and bacteriostatic activity profile [7]: antibacterial and bacteriostatic activity profile comparable to that of the comparison products
MINIMAL BACTERIAL CONCENTRATION (B.subtilis ATCC 6633): 2.00
MINIMAL BACTERIAL CONCENTRATION (C.albicans ATCC 10231): 2.00
MINIMAL BACTERIAL CONCENTRATION (Ps.aeruginosa ATCC 35422): > 10,000
MINIMAL BACTERIAL CONCENTRATION (St.aureus ATCC 65380): 1,000.00
MINIMAL BACTERIAL CONCENTRATION [8]: 8.00
MINIMAL BACTERIAL CONCENTRATION (E.coli ATCC 35218): 200.00
